# According to US20230085307A1, “PYRIDAZINONE COMPOUND AND HERBICIDE” (NISSAN CHEMICAL CORPORATION, priority 2019, published 2023):
# Legend:
# [1] = test system: persian speedwell; experiment: Test Example 4: herbicidal effect by soil treatment (Table 19, symbol R); type: in vivo, Persian speedwell (Veronica persica)
# In short: (§1)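 Soil-surface application: an emulsion agent diluted with water to the predetermined dose is sprayed uniformly over seeds lying under roughly 1.5 cm of sterilized diluvial soil. Boxes stay in a greenhouse at 25° C. to 30° C. Three weeks later, each species is graded on previously defined criteria.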
# [2] = test system: velvetleaf; experiment: Test Example 4: herbicidal effect by soil treatment (Table 19, symbol M); type: in vivo, velvetleaf (Abutilon theophrasti)
# In short: as §1
# [3] = test system: green foxtail; experiment: Test Example 5: herbicidal effect by foliage application, plastic box (Table 20, symbol G); type: in vivo, green foxtail (Setaria viridis); conditions: foliage application, 320 g/ha
# In short: (§2)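 Sow seeds spot-wise in sterilized diluvial soil; cover with ~1.5 cm soil. Grow 14 days in greenhouse, 25° C. to 30° C. Spray foliage with emulsion diluted to predetermined amount. Rate effect after 3 weeks.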
# [4] = test system: windgrass; experiment: Test Example 4: herbicidal effect by soil treatment (Table 19, symbol L); type: in vivo, windgrass (Apera spica-venti)
# In short: as §1
# [5] = test system: southern crabgrass; experiment: Test Example 4: herbicidal effect by soil treatment (Table 19, symbol F); type: in vivo, southern crabgrass (Digitaria ciliaris)
# In short: as §1
# [6] = test system: Japanese bulrush; experiment: Test Example 2: herbicidal activity, application during weed generation under submerged conditions (Table 17, symbol B); type: in vivo, Japanese bulrush (Schoenoplectus juncoides); conditions: AAH 320 g/ha; application during weed generation, submerged conditions
# In short: (§3)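 Effect on each weed is rated three weeks post-treatment, using the same scoring criteria as the preceding test. Plants grow from mixed-sown seed in flooded alluvial soil (4 cm water) at 25° C. to 30° C., and are treated at one to two leaves with diluted emulsion dropped onto the water.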
# [7] = test system: late watergrass; experiment: Test Example 2: herbicidal activity, application during weed generation under submerged conditions (Table 17, symbol A); type: in vivo, late watergrass (Echinochloa oryzicola); conditions: AAH 320 g/ha; application during weed generation, submerged conditions
# In short: as §3
# [8] = test system: lambsquarters; experiment: Test Example 5: herbicidal effect by foliage application, plastic box (Table 20, symbol O); type: in vivo, lambsquarters (Chenopodium album); conditions: foliage application, 320 g/ha
# In short: as §2
# [9] = test system: southern crabgrass; experiment: Test Example 5: herbicidal effect by foliage application, plastic box (Table 20, symbol F); type: in vivo, southern crabgrass (Digitaria ciliaris); conditions: foliage application, 320 g/ha
# In short: as §2
# [10] = test system: Chinese sprangletop; experiment: Test Example 3: herbicidal effect by foliage application, Wagner pot (Table 18, symbol D); type: in vivo, chinese sprangletop (Leptochloa chinensis)
# In short: (§4)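 Plants were sown in alluvial soil held under 0.1–0.5 cm standing water and grown 14 days in a greenhouse at 25–30 °C. An emulsifiable formulation, water-diluted to the set dose, was then sprayed onto the foliage, and effects were scored three weeks later using previously defined criteria.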
# [11] = test system: oval-leafed pondweed; experiment: Test Example 2: herbicidal activity, application during weed generation under submerged conditions (Table 17, symbol C); type: in vivo, oval-leafed pondweed (Monochoria vaginalis); conditions: AAH 320 g/ha; application during weed generation, submerged conditions
# In short: as §3
# [12] = test system: wild oat; experiment: Test Example 5: herbicidal effect by foliage application, plastic box (Table 20, symbol I); type: in vivo, wild oat (Avena fatua); conditions: foliage application, 320 g/ha
# In short: as §2
# [13] = test system: Italian ryegrass; experiment: Test Example 5: herbicidal effect by foliage application, plastic box (Table 20, symbol K); type: in vivo, Italian ryegrass (Lolium multiflorum); conditions: foliage application, 320 g/ha
# In short: as §2
# [14] = test system: persian speedwell; experiment: Test Example 5: herbicidal effect by foliage application, plastic box (Table 20, symbol R); type: in vivo, Persian speedwell (Veronica persica); conditions: foliage application, 320 g/ha
# In short: as §2
# [15] = test system: chickweed; experiment: Test Example 4: herbicidal effect by soil treatment (Table 19, symbol P); type: in vivo, common chickweed (Stellaria media); conditions: 320 g/ha
# In short: as §1
# [16] = test system: wild oat; experiment: Test Example 4: herbicidal effect by soil treatment (Table 19, symbol I); type: in vivo, wild oat (Avena fatua)
# In short: as §1
# [17] = test system: green foxtail; experiment: Test Example 4: herbicidal effect by soil treatment (Table 19, symbol G); type: in vivo, green foxtail (Setaria viridis)
# In short: as §1
# [18] = test system: rice flat sedge; experiment: Test Example 3: herbicidal effect by foliage application, Wagner pot (Table 18, symbol E); type: in vivo, rice flat sedge (Cyperus iria)
# In short: as §4
# [19] = test system: barnyard grass; experiment: Test Example 4: herbicidal effect by soil treatment (Table 19, symbol H); type: in vivo, barnyard grass (Echinochloa crus-galli)
# In short: as §1
# [20] = test system: windgrass; experiment: Test Example 5: herbicidal effect by foliage application, plastic box (Table 20, symbol L); type: in vivo, windgrass (Apera spica-venti); conditions: foliage application, 320 g/ha
# In short: as §2
# [21] = test system: lambsquarters; experiment: Test Example 4: herbicidal effect by soil treatment (Table 19, symbol O); type: in vivo, lambsquarters (Chenopodium album)
# In short: as §1
# [22] = test system: velvetleaf; experiment: Test Example 5: herbicidal effect by foliage application, plastic box (Table 20, symbol M); type: in vivo, velvetleaf (Abutilon theophrasti); conditions: foliage application, 320 g/ha
# In short: as §2
# [23] = test system: Italian ryegrass; experiment: Test Example 4: herbicidal effect by soil treatment (Table 19, symbol K); type: in vivo, Italian ryegrass (Lolium multiflorum)
# In short: as §1
# [24] = test system: blackgrass; experiment: Test Example 4: herbicidal effect by soil treatment (Table 19, symbol J); type: in vivo, blackgrass (Alopecurus myosuroides)
# In short: as §1
# [25] = test system: blackgrass; experiment: Test Example 5: herbicidal effect by foliage application, plastic box (Table 20, symbol J); type: in vivo, blackgrass (Alopecurus myosuroides); conditions: foliage application, 320 g/ha
# In short: as §2
# [26] = test system: redroot pigweed; experiment: Test Example 4: herbicidal effect by soil treatment (Table 19, symbol N); type: in vivo, redroot pigweed (Amaranthus retroflexus)
# In short: as §1
# [27] = test system: barnyard grass; experiment: Test Example 3: herbicidal effect by foliage application, Wagner pot (Table 18, symbol H); type: in vivo, barnyard grass (Echinochloa crus-galli)
# In short: as §4
# [28] = test system: barnyard grass; experiment: Test Example 5: herbicidal effect by foliage application, plastic box (Table 20, symbol H); type: in vivo, barnyard grass (Echinochloa crus-galli); conditions: foliage application, 320 g/ha
# In short: as §2
# [29] = test system: chickweed; experiment: Test Example 5: herbicidal effect by foliage application, plastic box (Table 20, symbol P); type: in vivo, common chickweed (Stellaria media); conditions: foliage application, 320 g/ha, evaluated three weeks after application
# In short: as §2
# [30] = test system: redroot pigweed; experiment: Test Example 5: herbicidal effect by foliage application, plastic box (Table 20, symbol N); type: in vivo, redroot pigweed (Amaranthus retroflexus); conditions: foliage application, 320 g/ha, evaluated three weeks after application
# In short: as §2
# [31] = amount of applied herbicide 320 g/ha
# [32] = evaluated three weeks after application
smiles,measurement,setting,value
COCCOCOc1c(C)nn(C)c(=O)c1-c1c(-c2ccc(C(C)C)cc2)sc2ccc(F)cc12 [2-015],"herbicidal effect rating, R: persian speedwell",[1]; 320 g/ha,4 (Herbicidal rate of 70% or more and less than 90%)
same,"herbicidal effect rating, M: velvetleaf",[2]; 320 g/ha,0 (Herbicidal rate of 5% or less (almost no effect))
same,effect on green foxtail (G),[3]; 3 weeks after application,0 (Herbicidal rate of 5% or less (almost no effect))
same,"herbicidal effect rating, L: windgrass",[4]; 320 g/ha,0 (Herbicidal rate of 5% or less (almost no effect))
same,"herbicidal effect rating, F: southern crabgrass",[5]; 320 g/ha,0 (Herbicidal rate of 5% or less (almost no effect))
same,"herbicidal effect rating, B: Japanese bulrush",[6],0 (Herbicidal rate of 5% or less (almost no effect))
same,"herbicidal effect rating, A: late watergrass",[7],4 (Herbicidal rate of 70% or more and less than 90%)
same,effect on lambsquarters (O),[8]; 3 weeks after application,5 (Herbicidal rate of 90% or more (almost completely withered))
same,effect on southern crabgrass (F),[9]; 3 weeks after application,1 (Herbicidal rate of 5% or more and less than 20%)
same,"herbicidal effect on D (Chinese sprangletop), rating 0-5",[10]; 320 g/ha,5 (Herbicidal rate of 90% or more (almost completely withered))
same,"herbicidal effect rating, C: oval-leafed pondweed",[11],0 (Herbicidal rate of 5% or less (almost no effect))
same,effect on wild oat (I),[12]; 3 weeks after application,0 (Herbicidal rate of 5% or less (almost no effect))
same,effect on Italian ryegrass (K),[13]; 3 weeks after application,0 (Herbicidal rate of 5% or less (almost no effect))
same,effect on persian speedwell (R),[14]; 3 weeks after application,5 (Herbicidal rate of 90% or more (almost completely withered))
same,"herbicidal effect rating, P: chickweed",[15],0 (Herbicidal rate of 5% or less (almost no effect))
same,"herbicidal effect rating, I: wild oat",[16]; 320 g/ha,0 (Herbicidal rate of 5% or less (almost no effect))
same,"herbicidal effect rating, G: green foxtail",[17]; 320 g/ha,0 (Herbicidal rate of 5% or less (almost no effect))
same,"herbicidal effect on E (rice flat sedge), rating 0-5",[18]; 320 g/ha,5 (Herbicidal rate of 90% or more (almost completely withered))
same,"herbicidal effect rating, H: barnyard grass",[19]; 320 g/ha,0 (Herbicidal rate of 5% or less (almost no effect))
same,effect on windgrass (L),[20]; 3 weeks after application,4 (Herbicidal rate of 70% or more and less than 90%)
same,"herbicidal effect rating, O: lambsquarters",[21]; 320 g/ha,2 (Herbicidal rate of 20% or more and less than 40%)
same,effect on velvetleaf (M),[22]; 3 weeks after application,5 (Herbicidal rate of 90% or more (almost completely withered))
same,"herbicidal effect rating, K: Italian ryegrass",[23]; 320 g/ha,0 (Herbicidal rate of 5% or less (almost no effect))
same,"herbicidal effect rating, J: blackgrass",[24]; 320 g/ha,0 (Herbicidal rate of 5% or less (almost no effect))
same,effect on blackgrass (J),[25]; 3 weeks after application,0 (Herbicidal rate of 5% or less (almost no effect))
same,"herbicidal effect rating, N: redroot pigweed",[26]; 320 g/ha,5 (Herbicidal rate of 90% or more (almost completely withered))
same,"herbicidal effect on H (barnyard grass), rating 0-5",[27]; 320 g/ha,5 (Herbicidal rate of 90% or more (almost completely withered))
same,effect on barnyard grass (H),[28]; 3 weeks after application,3 (Herbicidal rate of 40% or more and less than 70%)
CCCSc1ccc(-c2sc3ccc(F)cc3c2-c2c(O)c(C)nn(C)c2=O)cc1 [2-248],herbicidal effect on R: persian speedwell,[1]; [31],4 (Herbicidal rate of 70% or more and less than 90%)
same,herbicidal effect on M: velvetleaf,[2]; [31],3 (Herbicidal rate of 40% or more and less than 70%)
same,herbicidal effect on G: green foxtail (criteria 0-5),[3]; [32],5 (Herbicidal rate of 90% or more (almost completely withered))
same,herbicidal effect on L: windgrass,[4]; [31],0 (Herbicidal rate of 5% or less (almost no effect))
same,herbicidal effect on F: southern crabgrass,[5]; [31],1 (Herbicidal rate of 5% or more and less than 20%)
same,"herbicidal effect rating, B: Japanese bulrush",[6],0 (Herbicidal rate of 5% or less (almost no effect))
same,"herbicidal effect rating, A: late watergrass",[7],4 (Herbicidal rate of 70% or more and less than 90%)
same,herbicidal effect on O: lambsquarters (criteria 0-5),[8]; [32],5 (Herbicidal rate of 90% or more (almost completely withered))
same,herbicidal effect on F: southern crabgrass (criteria 0-5),[9]; [32],5 (Herbicidal rate of 90% or more (almost completely withered))
same,herbicidal effect on D: Chinese sprangletop,[10]; [31],5 (Herbicidal rate of 90% or more (almost completely withered))
same,"herbicidal effect rating, C: oval-leafed pondweed",[11],0 (Herbicidal rate of 5% or less (almost no effect))
same,herbicidal effect on I: wild oat (criteria 0-5),[12]; [32],5 (Herbicidal rate of 90% or more (almost completely withered))
same,herbicidal effect on K: Italian ryegrass (criteria 0-5),[13]; [32],4 (Herbicidal rate of 70% or more and less than 90%)
same,herbicidal effect on R: persian speedwell (criteria 0-5),[14]; [32],5 (Herbicidal rate of 90% or more (almost completely withered))
same,herbicidal effect on I: wild oat,[16]; [31],0 (Herbicidal rate of 5% or less (almost no effect))
same,herbicidal effect on G: green foxtail,[17]; [31],4 (Herbicidal rate of 70% or more and less than 90%)
same,herbicidal effect on E: rice flat sedge,[18]; [31],4 (Herbicidal rate of 70% or more and less than 90%)
same,herbicidal effect on H: barnyard grass,[19]; [31],2 (Herbicidal rate of 20% or more and less than 40%)
same,herbicidal effect on L: windgrass (criteria 0-5),[20]; [32],5 (Herbicidal rate of 90% or more (almost completely withered))
same,herbicidal effect on O: lambsquarters,[21]; [31],4 (Herbicidal rate of 70% or more and less than 90%)
same,herbicidal effect on M: velvetleaf (criteria 0-5),[22]; [32],5 (Herbicidal rate of 90% or more (almost completely withered))
same,herbicidal effect on K: Italian ryegrass,[23]; [31],0 (Herbicidal rate of 5% or less (almost no effect))
same,herbicidal effect on J: blackgrass,[24]; [31],0 (Herbicidal rate of 5% or less (almost no effect))
same,herbicidal effect on P: chickweed (criteria 0-5),[29],5 (Herbicidal rate of 90% or more (almost completely withered))
same,herbicidal effect on J: blackgrass (criteria 0-5),[25]; [32],4 (Herbicidal rate of 70% or more and less than 90%)
same,herbicidal effect on N: redroot pigweed (criteria 0-5),[30],5 (Herbicidal rate of 90% or more (almost completely withered))
same,herbicidal effect on N: redroot pigweed,[26]; [31],5 (Herbicidal rate of 90% or more (almost completely withered))
same,herbicidal effect on H: barnyard grass,[27]; [31],5 (Herbicidal rate of 90% or more (almost completely withered))
same,herbicidal effect on H: barnyard grass (criteria 0-5),[28]; [32],5 (Herbicidal rate of 90% or more (almost completely withered))
